According to patent US6528309B2, “Vacuum-mediated desiccation protection of cells” (The Regents of the University of California, priority 2001, dated 2003):
Like-named read-outs stand apart in the source and are kept apart here.

Legend:
[1] = test system: Basinger fibroblast cells; experiment: Cytotoxicity of carbohydrates and polyols (maximum usable concentration)
Experimental: To determine whether any of these molecules have properties that would allow them to substitute for trehalose in promoting desiccation tolerance in mammalian cells, a number of carbohydrates and polyols were systematically studied. Each was tested initially to determine the maximum concentration at which they could be used without causing cytotoxicity. The ability of the different molecules to mediate desiccation tolerance was then tested at the optimal concentration for each.
Thus, in these experiments, Basinger fibroblast cells were tested in long term desiccation experiments (i.e., longer than 5 days of drying). In these experiments, Basinger cells at approximately 75% confluence were exposed to a polyol or disaccharide for 12 hours prior to removal of medium and desiccation under vacuum. Thermal shock was used to introduce the disaccharides or polyols into the cells to produce equal concentrations final of 50 mM in the cultures (with equal numbers of cells). […] FIG. 7 also provides a graphic representation of the results for various test disaccharides and polyols.

[2] = test system: Basinger human fibroblasts; experiment: Drying tolerance of Basinger human fibroblasts with disaccharides and polyols (trypan blue exclusion); type: cell-based; details: for Cell Culture Survival (%): concentration (50 mM or 10% solution), vacuum; for effectiveness in protecting the viability of the cells (in words): trypan blue exclusion
Experimental: (§1) Trypan blue exclusion was done by adding 10 μl of 0.4% trypan blue in 0.85% NaCl (Gibco BRL) to 10 μl of a single cell suspension of trypsinized cells and counting the number of trypan blue positive and negative cells. Colony assays were done by harvesting adherent cells 8-12 hours after rehydration, counting by hemacytometer, and plating either 200 or 300 cells in a 10 cm tissue culture dish. The same number of cells from a non-desiccated control were plated in parallel. Approximately 1 week later, the plates were stained with Giemsa and the colonies were counted.

12F cells [3] = experiment: Preliminary vacuum drying experiments; type: cell-based
12F cells [4] = experiment: Effect of trehalose and vacuum on desiccation tolerance of 12F cells; type: cell-based, human; details: trehalose 50 mM, three days dried
Experimental: In this Example, experiments conducted to determine the effect of trehalose and vacuum on desiccation tolerance of 12F cells are described. The 12F cells were prepared at 95% confluence in five 6-well plates. On plates 1 (V+T+) and 3 (V−T+), trehalose (50 mM final concentration) was introduced by thermal shock, as described in above. Medium was then removed from each of the wells, and Plates 1 (V+T+) and 2 (V+T−) were vacuum sealed using the Magic Vac vacuum packaging system (Flaem Nuova) and maintained at room temperature. Plates 3 and 4 were sealed in bags without vacuum and also maintained at room temperature. Three days later, medium (DMEM) was added to the plates, and the plates incubated at 37° C. with 10% CO2 overnight. The next day, the cells were harvested and stained with trypan blue in order to determine the dead/live ratio.
In some experiments, the samples were divided. One portion of the sample was used in the analysis of live/dead cells using trypan blue, as described above, and the second portion was plated into fresh culture media at 25× dilution and incubated until cells grew in the culture. This allowed counting of the live cells based on their “plating efficiency.” This was considered to be the best way to estimate the ratio of dead to alive cells.

12F cells [5] = experiment: Desiccation tolerance of 12F cells at different storage temperatures, with trehalose (trypan blue exclusion / FACS); type: cell-based, human; details: for Cell Survival: trehalose 50 mM by thermal shock, dried under vacuum
Experimental: as §1
For thermal shock experiments, trehalose solution (50 mM final concentration) in DMEM and 10% FBS, was added to a pellet of 1×10^6 cells to produce a cell suspension which was then incubated on ice for 5 minutes, and then for 10 minutes in a 37° C. water bath (Daw et al., Cryobiol., 10:126-133 [1973]; and Moore et al., Cell 54:777-785 [1988]). This cycle was repeated twice. For adherent cells, the cells were plated in 6-well plates and grown to 90-95% confluence prior to thermal shock with 50 mM trehalose as described above. These methods are described in more detail in the following Examples. However, it is not intended that the present invention be limited to any particular temperatures used for thermal shock, as it is known in the art that in some cases, cells can be shocked using different temperatures.
In these experiments, the effects of temperature and drying on cell survival were investigated. In addition, the effects of the presence of trehalose on cell survival under different conditions of temperature and drying were investigated. Ten 6-well plates of 12F cells were prepared at about 90-95 confluence. The day prior to the beginning of the drying period, five plates were exposed to thermal shock to introduce trehalose into the cells (as described above). On the first day of the drying period, all of the plates were dried, and the plates were incubated in pairs (i.e., one with trehalose and one without trehalose) at −70° C., −20° C., room temperature, and 37° C., for 4 days.
In additional experiments to determine the effect of temperature on the ability of cells to withstand desiccation, 6-well plates with 12F cells were prepared at approximately 90% confluence, dried under vacuum at room temperature as described above, and stored at −70° C., −20° C., 4° C., 20° C., and 37° C. for 3 days. In these experiments, two plates were used, one included trehalose (50 mM) introduced into the cells using thermal shock, as described above. […] The cells were then rehydrated and the viability was determined by trypan blue exclusion. […] The optimum survival temperature was determined to be about 20° C. (i.e., approximately room temperature). At the other temperatures examined, there were almost no viable cells remaining, as determined by trypan blue exclusion, and none were able to grow and form colonies (results not shown). In these experiments, the presence (“Tre(+)”)/absence (“Tre(−)”) of trehalose appeared to have no impact on the optimum temperature.
No colonies were ever grown from cells maintained in the desiccated state at temperatures other than approximately 20° C.

Adherent Basinger cells = experiment: Trehalose dose response for desiccation tolerance and cytotoxicity; type: cell-based, human; details: 24 hours incubation
Experimental: In these experiments, the effects of trehalose concentration on desiccation tolerance were determined. Adherent Basinger cells were prepared in 6-well plates, and incubated at 37° C., with 10% CO2. When the cells reached 65-70% confluence, the cells were incubated with varying concentrations of trehalose (10 mM, 25 mM, 50 mM, 150 mM, and 500 mM) for 24 hours. The cells were exposed to thermal shock and desiccated as described above.

Basinger cells = experiment: Colony (plating efficiency) assay after desiccation and rehydration; type: cell-based, human; details: for ability to mediate desiccation tolerance, singly and together (in words): 3% glycerol and/or 50 mM trehalose, thermal shock, vacuum (FIG. 8); for ability of the cells to form colonies following rehydration: results not shown
Experimental: as §1
To definitively determine the effect of different desiccation protocols, an assay based on colony formation (i.e., “plating efficiency”) was used, as described in the following Examples. In this assay, rehydrated cells were replated at low density and the number of distinct colonies counted. In this way, only rehydrated cells able to undergo cell division were counted as “viable.” The pattern of viability determined by trypan blue exclusion and colony assay were the same (e.g., compare FIG. 2A with FIG. 2B), validating the use of trypan blue to measure the effect of various treatments on cell viability.
In subsequent experiments, trehalose was tested in combination with glycogen, glycerol, and sucrose. As for some anhydrobiotic organisms (e.g., Artemia cysts) glycerol accounts for about 4% of their dry weight and trehalose constitutes up to about 14% of their dry weight, these experiments were conducted to determine the effects of these compounds on cell survival. In this Figure, results are shown for Basinger cells plated in 6-well plates and exposed to 3% glycerol and/or 50 mM trehalose immediately prior to undergoing thermal shock and desiccation under vacuum. After the drying period was complete, media were added and the cells were incubated overnight. The following day, the cells were harvested and plated for viability determination using the colony assay described herein.

[6] = test system: Basinger human fibroblasts; experiment: Cell survival after drying with trehalose combinations and trehalose alone; type: cell-based
Experimental: In this Example, experiments to observe the effects of various combinations of sugars on cell viability are described. The results obtained for these combinations were then compared with the results obtained for trehalose alone. The combinations used were trehalose with glycerol, and trehalose with mannitol. Controls were also tested with no sugars, and trehalose alone. In these experiments Basinger human fibroblasts were used.

12F and Basinger cells = details: human

Compound	Cell Culture Survival (%) ([2]; Day 3 of drying)	Cell Culture Survival (%) ([2]; Day 4 of drying)	Cell Culture Survival (%) ([2]; Day 5 of drying)	Cell Culture Survival (%) ([2]; Day 6 of drying)	effectiveness in protecting the viability of the cells (in words) [2]	further results
Dextran	0.9	2.4	1.7	0.8	completely ineffective	concentration found to be toxic (very low survival, no growth upon passage) [1]: ≥ 5%
OC[C@H]1O[C@H](O[C@H]2O[C@H](CO)[C@@H](O)[C@H](O)[C@H]2O)[C@H](O)[C@@H](O)[C@@H]1O [Trehalose, D (+) trehalose dihydrate]	45	38	12	10.5		trehalose concentration at which cytotoxic effects were observed (12F cells [3]): more than 50 mM; survival rate compared to the controls (in words) (12F cells [4]): much higher survival rate; cells appearing to be "live" (FACS) (12F cells [5]; dried in the presence of trehalose, incubated at −70° C., no growth upon plating): about 4%; survival rate (in words) (12F cells [5]; incubated at room temperature in the presence of trehalose): very high; Cell Survival (12F cells [5]; storage at RT (room temperature)): 34%; Cell Survival (12F cells [5]; storage temperature 4° C.): 2.8%; Cell Survival (12F cells [5]; storage temperature 37° C.): 0.4%; Cell Survival (12F cells [5]; storage temperature −20° C.): 0.7%; Cell Survival (12F cells [5]; storage temperature −70° C.): 4%; trehalose concentration resulting in obvious cytotoxicity (Adherent Basinger cells): above 150 mM; optimal concentration of trehalose for desiccation tolerance (Adherent Basinger cells; thermal shock, desiccation, 10-500 mM tested): 50 mM; ability to mediate desiccation tolerance, singly and together (in words) (Basinger cells): roughly similar; ability of the cells to form colonies following rehydration (Basinger cells): able to maintain cellular viability; Cell Survival ([6]; Day 3): 7.5; Cell Survival ([6]; Day 4): 0.8; Cell Survival ([6]; Day 5): 2.2; Cell Survival ([6]; Day 6): 1.5
OC[C@H]1O[C@@](CO)(O[C@H]2O[C@H](CO)[C@@H](O)[C@H](O)[C@H]2O)[C@@H](O)[C@@H]1O [Sucrose]	39	28	9.1	7.2	as effective as trehalose	
OC[C@H]1O[C@H](O[C@H]2[C@H](O)[C@@H](O)C(O)O[C@@H]2CO)[C@H](O)[C@@H](O)[C@@H]1O (mixture of isomers) [Maltose]	31	17	4.2	2.5		
OC[C@@H](O)[C@@H](O)[C@H](O)[C@H](O)CO [Mannitol]	32	11	3.1	5.4		
OC[C@@H](O)[C@@H](O)[C@H](O)[C@@H](O)CO [Sorbitol]	29	8	3.1	0.8		
Glycogen	40.6	21.5	14	9.5	almost equally as effective	
OCC(O)CO [glycerol]	2.6	4.8	0.7	3.1		optimum concentration [1]: 3%; concentration with long-term cytotoxic effect ([1]; human): above 4%; concentration found to be toxic (very low survival, no growth upon passage) ([1]; human, 12 h): ≥ 5%; ability to mediate desiccation tolerance, singly and together (in words) (Basinger cells): roughly similar; ability of the cells to form colonies following rehydration (Basinger cells): able to maintain cellular viability; concentration toxic for cells (12F and Basinger cells): above 5%
